Results reported in patent US20200297820A1, “STIMULATION OF HUMAN MEIBOMIAN GLAND FUNCTION” (The Schepens Eye Research Institute, Inc., priority 2013, published 2020).

Columns and labels:
Format in all cases: cell-based
[1] = test system: human meibomian gland epithelial cells; assay: High-performance thin-layer chromatography of total cellular lipid extracts; details: for accumulation of CE / accumulation of TG: 10 nM IGF-1 or 10 μg/mL AZM
Text: (§1) Cell numbers were enumerated with a hemocytometer. Cellular lipid and lysosome accumulation were examined by staining cells with: Filipin III (a fluorometric probe for identifying unesterified cholesterol), LipidTOX green neutral lipid stain, and LysoTracker® Red DND-99 (a fluorescent technique designed for labeling acidic organelles such as lysosomes). Lysosomal lamellar bodies were identified by transmission electron microscopy. In brief, after culture and treatment on 24 mm polycarbonate membrane transwell inserts (0.4 μm pore size), cells were fixed in a solution of 2% formaldehyde+2.5% glutaraldehyde, in 0.08 M sodium cacodylate buffer, pH 7.4, post-fixed with 2% osmium tetroxide in 0.1 M sodium cacodylate buffer, and stained en bloc with 2% aqueousuranyl acetate. Samples were then dehydrated in graded ethyl alcohol solutions and embedded by using the tEPON-812 epoxy resin kit. Cross sections ([…]) were stained with 1% toluidine blue in 1% sodium tetraborate solution. Ultra-thin sections (60-90 nm) were imaged with a transmission electron microscope interfaced with a digital CCD camera. For biochemical assessments, cellular lipids were extracted with chloroform and methanol from samples with the same amount of protein. Lipids were then evaluated with high-performance thin-layer chromatography. With regard to the staining results, three Filipin, five LipidTox and four LysoTracker studies were conducted, and each experiment was performed in duplicate. Four random pictures were taken of each group, and four random areas were selected for the measurement of fluorescent intensities. The HPTLC experiments were performed in duplicate more than three times. Image data were quantified with ImageJ (http://rsbweb.nib.gov/ij/index.html). Electron microscopic analyses were performed in triplicate.
FIG. 8a illustrates the effect of AZM on the expression of cholesterol ester (CE), free cholesterol (FC), phosphatidylethanolamine (PE), phosphatidylcholine (PC), and phosphatidylinositol (PI) inhuman meibomian gland epithelial cells. Cells were treated with vehicle or 10 μg/ml AZM for 5 days before performing chromatographic analyses of total lipid extracts. FIG. 8b illustrates band intensity of the cells shown in FIG. 8a measured using ImageJ. Control band intensity was set to 1, and data (mean±SE) are reported as fold-change compared to control values. *p<0.05,**p<0.005, versus control. Band intensity analysis includes data from at least three independent experiments.
FIGS. 14a and 14b illustrate the effect of IGF-1, AZM, and IFG-1+AZM combination on the accumulation of CE, TG, FC, PE, and PC. […] FIG. 14b quantifies band intensity using ImageJ. The control band intensity was set to 1, and data (mean 6 SE) were reported as fold-change compared with control values. […] Other bands are unidentified lipids. Band intensity analysis included data from three independent experiments.

[2] = test system: human meibomian gland epithelial cells; assay: Transmission electron microscopy of lysosomal lamellar bodies; details: 10 μg/ml, 5 days
Text: as §1, with “With regard to the staining results, three Filipin, five LipidTox and four LysoTracker studies were conducted, and each experiment was performed in duplicate. Four random pictures were taken of each group, and four random areas were selected for the measurement of fluorescent intensities. The HPTLC experiments were performed in duplicate more than three times.” left out, “Electron microscopic analyses were performed in triplicate.” left out

[3] = test system: human meibomian gland epithelial cells; assay: Immunoblot of signaling pathways (Akt, FoxO1, ERK, JAK2/STAT5)
Procedure: (§2) The disclosure turns now to sodium dodecyl sulfate-polyacrylamide gel, electrophoresis, and immunoblots. Cells were directly lysed in Laemmli buffer supplemented with 1% protease inhibitor cocktail (Sigma-Aldrich) and 5% β-mercaptoethanol (Sigma-Aldrich). Lysates were heated at 95° C. for 10 minutes, separated by sodium dodecyl sulfate-polyacrylamide gel electrophoresis on 10% Tris-glycine precast gels, and transferred to polyvinylidene difluoride membranes. Rabbit or mouse antibodies used were specific for phosphorylated Akt (p-Akt), pan-Akt, p-FoxO1, FoxO1, p-JAK2, JAK2, and β-actin; for p-ERK, ERK-2, STAT5, and the precursor form of SREBP-1; and for p-STAT5. Membranes were blocked with 5% bovine serum albumin in Tris-buffered saline containing 0.01% polysorbate 20. All primary antibodies were diluted to 1:1000 in blocking buffer except for p-Akt (1:4000), p-ERK (1:2000), ERK-2 (1:4000), SREBP-1 (1:200), and β-actin (1:10 000). Horseradish peroxidase-conjugated secondary antibodies were goat anti-rabbit IgG and Fc-specific goat anti-mouse IgG diluted to 1:5000. Proteins were visualized with enhanced chemiluminescent substrate or with ultrasensitive chemiluminescent substrate. Densitometry was performed with image-processing software.
To determine whether IGF-1 promotes the phosphorylation of Akt in human meibomian gland epithelial cells, cells were cultured under proliferating or differentiating conditions and then exposed to IGF-1 for 15 minutes.
FIGS. 9a, 9b, and 9c illustrate the effects of insulin-like growth factor 1 (IGF-1) and growth hormone (GH) on signaling pathways in human meibomian gland epithelial cells. Cells were cultured in keratinocyte serum-free medium containing epidermal growth factor (EGF) and bovine pituitary extract (BPE) for 2 days and then keratinocyte serum-free medium alone overnight or were cultured in 10% fetal bovine serum (FBS) medium for 5 to 7 days and in 1% FBS medium overnight. Cells were then incubated with vehicle or a 10 μM concentration of LY294002 for 2 hours, followed by IGF-1 or GH treatment for 15 minutes. Cell lysates were evaluated on immunoblotting. […] These experiments were repeated at least 3 times with similar results.
To assess whether GH activates Akt, FoxO1, ERK-2, or its classic (i.e., JAK2 and STAT5) signaling pathways in human meibomian gland epithelial cells, cells were cultured in proliferating or differentiating media, and were exposed to a 10 nM concentration of GH for 15 minutes, and processed for immunoblot analyses. […]

LNCaP cells [4] = assay: Proliferation of LNCaP control cells; details: 1% FBS, 2 days
Procedure: Regarding cell proliferation assay, the human meibomian gland epithelial cells and LNCaP cells were cultured in 12-well plates in designated media and then exposed to IGF-1 or GH for defined periods. At experimental termination, cells were trypsinized and counted with a hemocytometer.
FIGS. 10a, 10b, and 10c illustrate the influence of IGF-1 on the proliferation of human meibomian gland epithelial cells. Cells were cultured (100,000 cells/well in 12-well plates, 3 wells per group) in basal, proliferating, and/or differentiating media and treated with IGF-I for 2 to 6 days. […] P values are for post hoc comparison compared with the control value. […] ANOVA indicates analysis of variance; EGF-BPE, epidermal growth factor-bovine pituitary extract; KSFM, keratinocyte serum-free medium. All comparisons are with control value. Whiskers mark SEM. aP<0.05 compared with the control value, post hoc test.

LNCaP cells [5] = assay: Immunoblot of JAK2/STAT5 pathway in positive control cells
Procedure: as §2, with “Proteins were visualized with enhanced chemiluminescent substrate or with ultrasensitive chemiluminescent substrate. Densitometry was performed with image-processing software.” left out
FIGS. 9a, 9b, and 9c illustrate the effects of insulin-like growth factor 1 (IGF-1) and growth hormone (GH) on signaling pathways in human meibomian gland epithelial cells. […] Cell lysates were evaluated on immunoblotting. […]

For `CC[C@H]1OC(=O)[C@H](C)[C@@H](O[C@H]2C[C@@](C)(OC)[C@@H](O)[C@H](C)O2)[C@H](C)[C@@H](O[C@@H]2O[C@H](C)C[C@H](N(C)C)[C@H]2O)[C@](C)(O)C[C@@H](C)CN(C)[C@H](C)[C@@H](O)[C@]1(C)O` [Azithromycin], the “accumulation of CE” value ([1]; 7 days) was “significant effect”, the “accumulation of TG” value ([1]; 7 days) was “significant effect” and the “accumulation of PE” value ([1]; 10 μg/mL AZM, 7 days) was “significant effect”. For the same compound, the “accumulation of esterified cholesterol (CE)” value ([1]; 10 μg/ml, 5 days) was “significantly promotes an accumulation”, the “accumulation of free cholesterol (FC)” value ([1]; 10 μg/ml, 5 days) was “significantly promotes an accumulation” and the “accumulation of phosphatidylcholine (PC)” value ([1]; 10 μg/ml, 5 days) was “significantly promotes an accumulation”. For the same compound, the “accumulation of phosphatidylethanolamine (PE)” value ([1]; 10 μg/ml, 5 days) was “significantly promotes an accumulation”, the “accumulation of phosphatidylinositol (PI)” value ([1]; 10 μg/ml, 5 days) was “significantly promotes an accumulation” and the lysosomal lamellar bodies [2] was “many of these lysosomes appear to be onion-shaped lamellar bodies”.
In the case of GH: human growth hormone, the “phosphorylation of extracellular-signal-regulated kinases (ERKs)” value [3] is reported as “increase the phosphorylation”, the “activation of Akt, FoxO1, ERK-2, JAK2 and STAT5” value ([3]; 10 nM, 15 minutes, proliferating or differentiating media) is reported as “did not show that GH elicited effects” and the “activation of Akt, FoxO1, ERK-2, JAK2 and STAT5” value ([3]; doses of 0.05 to 50 nM) is reported as “negative results”. For the same compound, the proliferation (LNCaP cells [4]) was “increased” and the “activation of JAK2/STAT5 pathway” value (LNCaP cells [5]) was “activated the JAK2/STAT5 pathway”.
For “IGF-1: recombinant human insulin-like growth factor 1”, the “phosphorylation of extracellular-signal-regulated kinases (ERKs)” value [3] was “increase the phosphorylation”, the “phosphorylation of ERK” value ([3]; 10 nM, 15 minutes, 2 studies enhanced, 3 no influence) was “inconsistent effect” and the “phosphorylation of FoxO1” value ([3]; 10 nM, 15 minutes, differentiating cells) was “increased phosphorylation of FoxO1”. The “culture condition in which Akt and FoxO1 phosphorylation occurred” value ([3]; 10 nM, 15 minutes, proliferating or differentiating conditions) was “differentiating but not proliferating cells”, the “concentration at which p-Akt effect became maximal” value ([3]; IGF-1 for 15 minutes) was 10 nM and the “concentration at which p-Akt effect could be detected” value ([3]; IGF-1 for 15 minutes) was 1 nM. For the same compound, the “expression of p-Akt” value ([3]; IGF-1 for 15 minutes, differentiating cells) was “dose-dependent expression of p-Akt”, the “phosphorylation of Akt” value ([3]; within minutes) was “increases the phosphorylation of Akt” and the “accumulation of CE” value ([1]; 7 days) was “significant effect”. The “accumulation of TG” value ([1]; 7 days) was “significant effect” and the proliferation (LNCaP cells [4]) was “increased”.
